Data reported in patent publication US20010036929A1, “Xrcc3 is required for assembly of Rad51-complexes in vivo” (ARCH Development Corporation., priority 1998, published 2001).

Tests used:
[1] = tested on: Rad51 foci in CHO CXR3 cells; test: Cisplatin-induced Rad51 focus formation (a-Rad51 immunostaining) in CXR3 cells; assay type: cell-based, Chinese hamster; conditions: foci per nucleus, single focal plane
Protocol: (§1) Cisplatin treatment: For dose response studies, the cultures were washed twice in serum-free medium and then incubated for 1 hour in serum-free medium containing varying concentrations of cisplatin (Bristol Laboratories). After the incubation, the dishes were washed three times in serum-free medium and complete medium was added. Cultures were then placed at 37° C. for 3 hours at which time a single-cell suspension was obtained with trypsin/EDTA and the cells were prepared for immunostaining. For time course studies, cell cultures were washed twice in serum-free medium and incubated for one hour in serum-free medium containing 10 μM cisplatin. After incubation, the cells were washed and incubated in complete medium. At the appropriate times the cells were harvested by trypsin treatment and prepared for immunostaining. Immunostaining: Fixed cells were transferred to slides using a Cytospin 2 (Shandon, Pittsburgh, Pa.) centrifuge. Slides were washed twice in Tris-buffered saline (TBS) and incubated for 15 minutes in TBS 1% bovine serum albumin BSA at room temperature. The wash was removed and anti-Rad51 antibody in TBS 1% BSA was applied. The slides were incubated overnight at 4° C. in a humidified chamber. The slides were washed twice in TBS and secondary antibody (fluorescein-conjugated goat anti-rabbit; Molecular Probes, Inc., Eugene, Oreg.) was applied at a 1:1000 dilution in the dark. […]

xrcc3− tumors = test: Mouse xenograft tumor model, xrcc3- tumors, intratumoral cisplatin; assay type: in vivo; conditions: xrcc3− tumors in nude mice; 0.1 ml 100 μg/ml cisplatin injected into tumors on days 1-5
Protocol: (§2) The sensitivity of XRCC3 defective cells to cis-platinum is also reflected in the ability of the drug to cause regression and cure of tumors in a mouse xenograft tumor model. Groups of 12 nude mice were injected in the hind limb with 5X105 XRCC3+ cells or xrcc3− cells. XRCC3+ lines (essentially equivalent to the PXR3 lines described above) and isogenic xrcc3− lines (equivalent to the irs1SF line described above), were injected into nude mice. Tumors were allowed to grow for 2 weeks (volumes of 300-500 mm3). On days 1-5 tumors were injected with 0.1 ml 100 μg/ml cisplatin in PBS or with the same volume of PBS alone. […] Tumor volumes were measured at 3-5 day intervals starting on the first day of treatment. Fractional tumor volumes were calculated as the volume of the tumor on a particular day divided by the volume of the tumor on the day of the first treatment. The fractional tumor volumes in mice injected with XRCC3+ positive cells increased regardless of whether they received cisplatin treatment or the control treatment; the final fractional tumor volume for both the treated and untreated groups was about 5 on average. […] Fractional tumor volume was about 5 on average for the untreated cells and about 0.05 on average for the tumors treated with cisplatin.

CHO cells = conditions: 1 μM cisplatin for 1 hour; cited from earlier work
XRCC3+ tumors = test: Mouse xenograft tumor model, XRCC3+ tumors, intratumoral cisplatin; assay type: in vivo; conditions: XRCC3+ tumors in nude mice; 0.1 ml 100 μg/ml cisplatin injected into tumors on days 1-5
Protocol: as §2

[2] = tested on: Rad51 foci in CHO AA8 cells; test: Cisplatin-induced Rad51 focus formation (a-Rad51 immunostaining) in AA8 cells; assay type: cell-based, Chinese hamster; conditions: for Induction of Rad51 foci: then 3 hours before fixation
Protocol: as §1, with “dark. The slides were incubated at room temperature in the dark for 1 hour. The slides were washed twice with TBS and stained with DAPI (0.1 μg/ml in TBS) for 5 minutes. The slides were dried and coverslips mounted with Vectashield mounting medium (Vector Laboratories Inc., Burlingame, Calif.). Microscopy: Immunostained samples were examined via standard epifluorescence microscopy using a Ziess Photoscope III through a 100X objective. Digital images were obtained with a CCD camera (Imagepoint, Photometrics Inc., Tucson, Ariz.). A single focal plane was documented for each nucleus. Therefore, the numbers presented are less than the total number of foci per nucleus.” for “dark.”

[3] = tested on: Rad51 foci in CHO irs1SF cells; test: Cisplatin-induced Rad51 focus formation (a-Rad51 immunostaining) in irs1SF cells; assay type: cell-based, Chinese hamster
Protocol: as §1

[4] = tested on: Rad51 foci in CHO PXR3 cells; test: Cisplatin-induced Rad51 focus formation (a-Rad51 immunostaining) in PXR3 cells; assay type: cell-based, Chinese hamster; conditions: foci per nucleus, single focal plane
Protocol: as §1

## N.N.[Cl][Pt][Cl] [cisplatin]
[1]
  Rad51 foci induced by cisplatin treatment: up to 30 foci
xrcc3− tumors
  Fractional tumor volume (volume on day / volume on day of first treatment), average: about 0.05
CHO cells
  Cells that survive: 50-80%
XRCC3+ tumors
  Final fractional tumor volume (volume on day / volume on day of first treatment), average: about 5
[2]; 1 μM cisplatin for 1 hour
  Induction of Rad51 foci: Significant induction of foci
[2]; 10 μM cisplatin for 1 hour
  Induction of Rad51 foci: Near maximum induction of foci
[2]; AA8 cells, foci per nucleus, single focal plane
  Rad51 foci induced by cisplatin treatment: up to 30 foci
[3]
  Induction of Rad51 foci by cisplatin treatment: no induction of foci was detected
[4]
  Rad51 foci induced by cisplatin treatment: up to 30 foci
